The source of these data is article PMC10994559 (PLOS Neglected Tropical Diseases, 2024).

Like-named read-outs stand apart in the source and are kept apart here.

Test [1] deals with E. histolytica. Kind of test: E. histolytica viability, ATP luminescence (Cell titer glo). Type of test: cell-based, Entamoeba histolytica. Particulars: Entamoeba histolytica, 48 h. The protocol: Entamoeba histolytica (strain B2-5) was passaged in TY-1 medium (Trypticase peptone BBL, Yeast extract BBL, glucose, NaCl, K2HPO4, KH2PO4, cysteine, ascorbic acid, ammonium iron citrate, adult bovine serum, Diamond tween 80, penicillin G, amikacin (pH:6.8)) and kept in 37°C incubator in completely filled tubes with closed lid.
Viability of E. histolytica was assayed via a luminescence assay based on ATP quantification in the live cells. Briefly, 2.5x10^4 cell/ml were exposed to 25 μM of compounds in 96 well plates (non-transparent, tissue culture treated, flat bottom; SPL Life Sciences) in triplicate for 48h. Plates were incubated in sealed anaerobic bags (Oxoid AGS) together with an Anaerogen compact bag (Thermo Scientific) and anaerobic indicator (Thermo Scientific) at 37°C. Then, Cell titer glo reagent (Promega) was added to the reaction (1:5) according to manufacturers’ instruction. After 15 min of orbital shaking, followed by 10 min incubation at RT, ATP-bioluminescence was quantified at RT using a Synergy H1 plate reader (Synergy H1, BioTek). Metronidazole was included as control drug in all the assays for E. histolytica. Test compounds indicating significant growth reduction in the primary screen were subjected to potency determination. These secondary screens were essentially carried out as detailed above, but with a 9 to 16-point concentration range of the test compounds spanning 0.01–100 μM.

Test [2] relates to T. brucei BSF proteome. Set-up: method as in PMID: 32354742. The settings on record: ref PMID: 32354742, cited from earlier work.

For the compound `Cc1ncc([N+](=O)[O-])n1CCO` [Metronidazole, reference compound], the viability at 2.5 µM in test [1] (read-out: Residual viability, E.histolytica (2.5 µM)) amounted to 71.6 ± 32.3%. The viability at 25 µM in test [1] (read-out: Residual viability, E.histolytica (25 µM)) is -7.82 ± 3.48%. Also, in test [1] (9 to 16-point dose response), the 50% effective concentration (EC50) amounted to 2.9 ± 1.8 µM.

As for `Cc1ccc(C(=O)Nc2ccc(S(=O)(=O)O)c3cc(S(=O)(=O)O)cc(S(=O)(=O)O)c23)cc1NC(=O)c1cccc(NC(=O)Nc2cccc(C(=O)Nc3cc(C(=O)Nc4ccc(S(=O)(=O)O)c5cc(S(=O)(=O)O)cc(S(=O)(=O)O)c45)ccc3C)c2)c1` [suramin], the “suramin ratio (protein abundance)” value is 2.73 in test [2] (protein 2-oxoglutarate dehydrogenase E1 component, Tb927.11.1450); 3.16 in test [2] (protein 2-oxoglutarate dehydrogenase E1 component, Tb927.11.9980); 0.80 in test [2] (protein ACS1, Tb927.7.6180); 2.76 in test [2] (protein Aconitase, Tb927.10.14000); 0.78 in test [2] (protein CIF1 (TOEFAZ1), Tb927.11.15800); 1.00 in test [2] (protein CIF3, Tb927.10.13100). Besides, the “suramin ratio (protein abundance)” value in test [2] (protein CIF4, Tb927.10.8240) is on record as 0.84; in test [2] (protein F1 alpha, Tb927.7.7430, Tb927.7.7420), 1.62; in test [2] (protein F1 beta, Tb927.3.1380) it was 1.57; in test [2] (protein F1 gamma, Tb927.10.180) it was 1.62; in test [2] (protein F1 p18, Tb927.5.1710), 0.87; in test [2] (protein FPRC, Tb927.10.6360), 1.14. The “suramin ratio (protein abundance)” value is recorded as 1.62 in test [2] (protein Fo 8, Tb927.4.3450); 1.20 in test [2] (protein Fo ATBTB1, Tb927.10.520); 1.77 in test [2] (protein Fo ATBTB3, Tb927.11.6250); 0.88 in test [2] (protein Fo ATBTB4, Tb927.10.9830); 1.92 in test [2] (protein Fo ATBTB12, Tb927.5.3090); 1.11 in test [2] (protein Fo OSCP, Tb927.10.8030). For the same compound, the “suramin ratio (protein abundance)” value is 1.32 in test [2] (protein Fo d, Tb927.5.2930); 1.21 in test [2] (protein Fo e, Tb927.11.600); 1.06 in test [2] (protein Fo f, Tb927.3.1690); 1.67 in test [2] (protein Fo i/j, Tb927.3.2880); 1.07 in test [2] (protein Fo k, Tb927.7.840); 3.30 in test [2] (protein Glutamate dehydrogenase, Tb927.9.5900). Also, the “suramin ratio (protein abundance)” value in test [2] (protein PIP39, Tb927.9.6090) is 2.83; in test [2] (protein PPDK, Tb927.11.6280), 2.94; in test [2] (protein Proline dehydrogenase, Tb927.7.210), 4.55; in test [2] (protein SAXO, Tb927.8.6240), 0.98; in test [2] (protein Tb927.1.4280), 0.91; in test [2] (protein isocitrate dehydrogenase, Tb927.8.3690), 1.96. The “suramin ratio (protein abundance)” value is listed as 1.99 in test [2] (protein mitochondrial malate dehydrogenase, Tb927.10.2560); 1.97 in test [2] (protein succinyl-CoA ligase beta-chain, Tb927.10.7410); 1.94 in test [2] (protein succinyl-CoA synthetase alpha subunit, Tb927.3.2230).

For orientation: viability means a read-out of living cells in per cent, often relative to untreated cells. As usually defined, the EC50 is the concentration that produces a half-maximal response.
